Series [1] relates to SERCA2a mRNA. Description: SERCA2a mRNA expression via RT-PCR in heart sections, 30 day single dose tissue distribution study. In kind it is in vivo, Göttingen Minipigs. The note with it: nitroglycerin given with AAV1/SERCA2a; especially deep myocardial regions (septum, middle layer anterior wall). How it is done: (§1) Administration on Day 0 was via the direct coronary infusion procedure described below. Animals from Groups 1-3 were dosed with a total volume of 12 mL of AAV1/SERCA2a solution which was infused at a constant rate of 1.2 mL/minute over a 10 minute period. Animals from Groups 3 and 4 received nitroglycerin as a bolus intracoronary injection immediately prior to administration of AAV1/SERCA2a. Animals from Group 3 were dosed with a total volume of 12 mL of AAV1/SERCA2a and nitroglycerin solution, which was infused at a constant rate of 1.2 mL/minute over a 10 minute period. Animals from Group 4 were dosed with a total volume of 12 mL of normal saline, which was infused at a constant rate of 1.2 mL/minute over a 10 minute period. The direct infusion system is composed of standard (commercially available) components including a conventional guide sheath, 0.014″ guide-wire, a 5F infusion (guide) catheter and two programmable syringe pumps. […]
Total mRNA and protein expression in the left ventricle of individual sections was calculated (sum of sections 1-10 in FIG. 1), and the septum (section #5 in FIG. 1), and the middle layer anterior wall (section #6 in FIG. 1) were also analyzed separately, as these regions represent deep myocardium, furthest from the site of infusion. […]

A short description of series [2]: Hemodynamic monitoring (mean aortic/arterial pressure) during administration of AAV1/SERCA2a. In kind it is in vivo, Göttingen Minipigs. The note with it: Groups 3 and 4 (nitroglycerin treated animals); maximum; except one time point in group 4. The method, then:
as §1, with “pumps. The direct intracoronary infusion procedure began with introduction of the conventional guide sheath using a common carotid arterial or femoral arterial approach. The Coronary Infusion Catheter (e.g., Cordis Vista Brite Tip Guiding Catheter or similar model appropriate for cannulation of the left main coronary artery) was then placed in the left main coronary artery under fluoroscopic guidance.” for “pumps.”

Molecules are shown by their SMILES.

Take `O=[N+]([O-])OCC(CO[N+](=O)[O-])O[N+](=O)[O-]` [nitroglycerin, glyceryl trinitrate]: in series [1], the vector uptake result is “enhanced”. The “decrease in Mean arterial pressure (MAP) compared to baseline” value in series [2] was at most 6 mm Hg.

Source of the values: patent US8221738B2, “Method for enhanced uptake of viral vectors in the myocardium” (Celladon Corporation, priority 2008, dated 2012).
